# According to patent US5026688A (Administrators of the Tulane Educational Fund, priority 1988, dated 1991):
# Like-named read-outs stand apart in the source and are kept apart here.
# Assays:
# reverse transcriptase = conditions: cited from earlier work
# HIV-1 = assay: inhibition of HIV-1 replication in PBL (p24 antigen in culture supernatant); type: cell-based; conditions: for P24 antigen in culture supernatant: drug-free control 372,835 pg/ml
# Protocol: The concentration of virus-specificp24 antigen in the culture, and, therefore the ability of each drug to inhibit HIV replication was measured by their ability to inhibit production of the p24 antigen.
# Inhibition of HIV-1 replication was determined using PBL from seronegative donors. PBL activated with 2 μg/ml PHA for 72 hrs were washed with medium and 10×10^6 cells were incubated for 4 hr at 37° C. (Mitsuya et al., PNAS USA 82:7096, […]) in 5 ml medium containing the appropriate concentration of the drug. The cells were then infected with 10^4 TCID50 of HIV (isolated CD 451) by the addition of 0.1 ml of virus preparation and gentle rocking of the cultures of 15 min intervals for 90 min at room temperature. The fluid volume was increased to 10ml and the cultures maintained at 37° C. in a humidified 5% CO2 -in-air atmosphere. On day 3 post-infection, half the cell-free fluid in each culture was removed and replaced with fresh medium containing the respective drug. The extent of HIV replication in a control and the experimental cultures was evaluated 7 days post-infection by quantifying the concentration of HIV-specific p24 antigen in an undiluted and 5-fold serial dilutions of the culture supernatants using commercial antigen-capture assay kits (DuPont, Billerica, Mass.). The concentration of HIV-specific p24 antigen in the 7 day supernatant fluid of a drug-free control culture was 372,835 pg/ml.
# AIDS = conditions: cited from earlier work
# [1] = in vivo; cited from earlier work
# [2] = Richman et al. 1987; cited from earlier work
# [3] = test system: peripheral blood lymphocytes; assay: uptake of radiolabelled drug by peripheral blood lymphocytes (PBL); type: in vitro ADME
# Protocol: DP-AZT was therefore tested to determine if the problem of rapid elimination and inadequate permeability could be overcome.
# PBL from HIV seronegative donors were also separated by standard Ficol-Hypaque gradient centrifugation. The lymphocytes were grown in RPMI 1640 supplemented with 15% heat-inactivated FBS, 100 U/ml penicillin, 100 μg/ml streptomycin and 2 μg/ml PHA. The cells were incubated for 4 days at 37° C. and uptake studies were done according to the procedure described above for H9 cells.
# p24 gag protein of HIV = conditions: in vitro; Mitsuya et al. 1985; cited from earlier work
# H9 cells = assay: uptake of radiolabelled drug by H9 cells; type: in vitro ADME; conditions: for cellular uptake relative to AZT, in words: H9 cells (FIGS. 6, 7)
# Protocol: The reaction was stopped by centrifugation at 13,000×g for 1 min. The cell free supernatant was discarded by aspiration and the cell pellet was washed with ice cold PBS to remove any traces of free radioactive drug. The cell pellet was resuspended in PBS and counted for radioactivity in a Tri-carb Packard liquid scintillation analyzer Model 1500 (Packard Instruments Co., Dowers Grove, Ill.) and the percentage of radioactivity was calculated. (All experiments were done in duplicate and repeated at least three times).
# [4] = test system: peripheral blood lymphocytes; assay: hydrolysis of DP-AZT to AZT in PBL; type: in vitro ADME; conditions: 500 μM DP-[3H]-AZT, 5×10^5 PBL, 37° C., 4 h
# Protocol: (§1) In contrast, bone marrow cells were able to hydrolyze only 50% of the pro-drug at the end of 4 hours of incubation.
# Suspensions of 5×10^5 PBL (100 μl) in Eppendorf tubes were mixed with 100 μl of 500 μM DP-AZT and incubated at 37° C. At various time intervals (0 to 4 hrs), cell pellets were collected after centrifugation at 13,000×g for 1 min, washed with PBS and extracted with ice-cold 0.2 M perchloric acid. The acid extracts were clarified by centrifugation, neutralized with KOH, centrifuged to remove insoluble potassium perchlorate, evaporated to dryness under reduced pressure (Buchler Evapo-Mix apparatus) and constituted with 200 μl of methanol (Zimmerman et al., J. Biol. Chem. 262:5748, 1987).
# [5] = hydrolysis of DP-AZT by human plasma in vitro; type: in vitro ADME; conditions: up to 4 hours in incubation
# [6] = physical and chemical stability; type: physicochemical
# Description: The general pattern of synthesis of DP-AZT is outlined in FIG. 1. Treatment of 3,-azido-2',3'-dideoxythymidine in the presence of DCC and 4-dimethyl amino pyridine in ethyl acetate yield the nicotinyl ester. The ester is then quarternized by refluxing it in acetone with methyl iodide. […] In addition to DP-AZT, other derivatives at the N-methyl site in particular can also be prepared.
# [7] = hydrolysis of DP-AZT in mouse bone marrow cells; type: in vitro ADME; conditions: end of 4 hours of incubation, read-out: hydrolysis of the pro-drug
# Protocol: as §1
# Bone marrow cells were obtained from femurs of 8-week old CD-1 mice. The femurs were removed asceptically and rinsed in RPMI-1640. Bone marrow cells were flushed with medium by using a 19-gauge needle and a single cell suspension was made by pipette action. These cells were used for hydrolytic experiments similar to described above for PBL.
# mouse bone marrow cells = assay: bone marrow toxicity: inhibition of [3H]-thymidine uptake in murine bone marrow cells; type: cell-based; conditions: for less inhibition of [3H]-thymidine incorporation into bone marrow cells than AZT: relative to AZT, 60 h exposure, 12 h pulse
# Protocol: The percent inhibition of [^3 H]-thymidine uptake was used as an indication of bone marrow toxicity (FIG. 5).
# The bone marrow cells were obtained from CD-1 mice as described under Section 6.2.3, supra. Approximately 2×10^5 cells in 100 μl of medium were plated in a 96-well plate, 100 μl of drug solution at various concentrations (0-500 μM) was added, and the plate was incubated at 37° C. for 60 hr. [^3 H]-Thymidine (0.2 μc/well, specific activity 30 c/mmole) was pulsed for 12 hr, and at the end of 72 hr cells were harvested by using Skatron 7019 cell harvester.
# [8] = hydrolysis of DP-AZT by rat liver microsomes; type: in vitro ADME; conditions: 15.5 mg protein/ml, 37° C., 0 to 4 h
# Protocol: as §1
# To 900 μl of rat liver microsomes containing 15.5 mg protein/ml (Wong et al., Biochem. Pharmacol. 37:473, 1988), 100 μl of DP-AZT (2 mg/ml dissolved in dimethylsulfoxide) was added and incubated at 37° C. in a water bath. At various time intervals (0 to 4 h) 100 μl of sample was withdrawn and added immediately to ice-cold methanol (400 μl).
# HIV = conditions: Yamamoto et al. 1986; cited from earlier work
# [9] = test system: retrovirally infected mice; conditions: Watson et al. 1988; cited from earlier work
# [10] = 0.5 μM drug, 7 days post-infection
# [11] = 5.0 μM drug, 7 days post-infection
# [12] = 10.0 μM drug, 7 days post-infection
# [13] = Human immunodeficiency virus 1, PBL, 168 h, 0.5 μM drug, 7 days post-infection, read-out: p24 antigen, % reduction of control
# [14] = Human immunodeficiency virus 1, PBL, 168 h, 5.0 μM drug, 7 days post-infection, read-out: p24 antigen, % reduction of control
# [15] = Human immunodeficiency virus 1, PBL, 168 h, 10.0 μM drug, 7 days post-infection, read-out: p24 antigen, % reduction of control
compound,measurement,setting,value
Cc1cn([C@H]2C[C@H](N=[N+]=[N-])[C@@H](COP(=O)(O)OP(=O)(O)OP(=O)(O)O)O2)c(=O)[nH]c1=O [AZT triphosphate],"reverse transcriptase inhibition, in words",reverse transcriptase,competitive inhibitor of reverse transcriptase
"Cc1cn([C@H]2C[C@H](N=[N+]=[N-])[C@@H](CO)O2)c(=O)[nH]c1=O [AZT, 3'-azido-2',3'-dideoxythymidine, reference compound]",P24 antigen in culture supernatant,HIV-1; [10],"67,273 pg/ml"
same,P24 antigen in culture supernatant,HIV-1; [11],"1,758 pg/ml"
same,P24 antigen in culture supernatant,HIV-1; [12],"2,235 pg/ml"
same,inhibition at 0.5 µM,HIV-1; [13],82%
same,inhibition at 5 µM,HIV-1; [14],99.5%
same,inhibition at 10 µM,HIV-1; [15],99.4%
same,"mortality in comparison with placebo, in words",AIDS; Fischl et al. 1987,significant differences in mortality
same,"progression of disease, in words","AIDS; individuals with AIDS-related complex, Fischl et al.",delay the progression of the disease
same,"half-life in plasma, in words",[1],very short half-life in plasma
same,major adverse reactions,[2],"nausea, myalgia and insomnia"
same,time to maximum intracellular concentration,"[3]; 5 μM, PBL",2 h
same,uptake linearity,"[3]; 5 μM, PBL",linear for one hour
same,"reverse transcriptase inhibition, in words",reverse transcriptase,does not inhibit reverse transcriptase
same,"expression of p24 gag protein of HIV, in words",p24 gag protein of HIV,blocks the expression of the p24 gag protein of HIV
same,time to maximum intracellular concentration,"H9 cells; 5 μM, H-9 cells",2 h
same,uptake linearity,"H9 cells; 5 μM, H-9 cells",linear for one hour
"Cc1cn([C@H]2C[C@H](N=[N+]=[N-])[C@@H](COC(=O)C3=CN(C)C=CC3)O2)c(=O)[nH]c1=O [DP-AZT, 5,-[(1,4-dihydro-1-methyl-3-pyridinylcarbonyl)oxy] -3,-azido-2',3'dideoxythymidine]","efficacy against HIV-1 relative to AZT, in words",HIV-1; 0.5 μM,significantly greater efficacy against HIV-1 than AZT had
same,P24 antigen in culture supernatant,HIV-1; [10],"3,310 pg/ml"
same,P24 antigen in culture supernatant,HIV-1; [11],475 pg/mL
same,P24 antigen in culture supernatant,HIV-1; [12],215 pg/mL
same,inhibition at 0.5 µM,HIV-1; [13],99.1%
same,inhibition at 5 µM,HIV-1; [14],99.9%
same,inhibition at 10 µM,HIV-1; [15],99.9%
same,inhibition at 0.5 µM,"HIV-1; Human immunodeficiency virus 1, read-out: inhibition (p24 antigen)",99%
same,hydrolysis of the pro-drug,[4],complete hydrolysis of the pro-drug within four hours
same,time to maximum intracellular concentration,"[3]; 5 μM, PBL",2 h
same,uptake linearity,"[3]; 5 μM, PBL",linear for one hour
same,higher intracellular concentration than [3H]-AZT,"[3]; PBL, 5 μM, relative to AZT",at least 50%
same,hydrolysis by human plasma in vitro,[5],not hydrolyzed
same,air oxidation stability,[6]; during crystallization and drying,stable compound which does not undergo air oxidation
same,result of attempted chemical oxidation,[6]; hydrogen peroxide or sodium nitrate solution,hydrolysis of the ester producing AZT
same,"metabolised at 4 h, 500 µM",[7],50%
same,less inhibition of [3H]-thymidine incorporation into bone marrow cells than AZT,mouse bone marrow cells; 5 μM,44%
same,less inhibition of [3H]-thymidine incorporation into bone marrow cells than AZT,mouse bone marrow cells; 10 μM,59%
same,"bone marrow toxicity relative to AZT, in words",mouse bone marrow cells; 5 and 10 μM,significantly less toxic than AZT
same,hydrolysis by rat liver microsomes,[8],hydrolyzed by rat-liver microsomes (FIG. 4) in a manner similar to that observed in PBL
same,time to maximum intracellular concentration,"H9 cells; 5 μM, H-9 cells",2 h
same,uptake linearity,"H9 cells; 5 μM, H-9 cells",linear for one hour
same,higher intracellular concentration than [3H]-AZT,"H9 cells; H-9 cells, 5 μM, relative to AZT",at least 50%
Cc1cn([C@H]2C[C@H](N=[N+]=[N-])[C@@H](COC(=O)CN3CCN(c4ccccc4)CC3)O2)c(=O)[nH]c1=O [N-phenylpiperazine analogue],"cellular uptake relative to AZT, in words",H9 cells,improved cellular uptake
CC1=C(/C=C/C(C)=C/C=C/C(C)=C/C(=O)O)C(C)(C)CCC1 [Retinoic acid],"HIV replication, in words",HIV,inhibit HIV replication somewhat
Cc1cn([C@H]2C[C@H](N=[N+]=[N-])[C@@H](COC(=O)c3ccc[n+](C)c3)O2)c(=O)[nH]c1=O [compound 2],hygroscopicity,[6],hygroscopic
Cc1cn([C@H]2C[C@H](N=[N+]=[N-])[C@@H](COC(=O)C(N)Cc3ccccc3)O2)c(=O)[nH]c1=O (some centres unmarked) [phenylalanine AZT analogue],"cellular uptake relative to AZT, in words",[3]; PBL (FIG. 8),improved over AZT with respect to cellular uptake
CC1=C(/C=C/C(C)=C/C=C/C(C)=C/C(=O)OC[C@H]2O[C@@H](n3cc(C)c(=O)[nH]c3=O)C[C@@H]2N=[N+]=[N-])C(C)(C)CCC1 [retinoic acid ester of AZT],"cellular uptake relative to AZT, in words",H9 cells,a substantial improvement over cellular uptake of AZT
Cc1cn([C@H]2C[C@H](N=[N+]=[N-])[C@@H](COC(=O)C(N)Cc3ccc(O)cc3)O2)c(=O)[nH]c1=O (some centres unmarked) [tyrosine AZT analogue],"cellular uptake relative to AZT, in words",H9 cells,improved over AZT with respect to cellular uptake
Vitamin A,"activated macrophages and death rate, in words",[9],increased numbers of activated macrophages and decreased death rate
